The subject of series [1] is Humans. Conditions: cited from earlier work.
Series [2] concerns healthy volunteers. As to the kind of experiment: Phase 1b clinical trial: lower esophageal sphincter pressure (LESP) by manometry. Type of series: in vivo, human. To be noted: 0.5 mg, 0.8 mg and 1.4 mg. How it is done:
After randomization, subjects received a first dose of study medication (Day 1). The medication was administered under supervision and the subjects were then evaluated by manometry to assess LES position and pressure and by a multichannel intraluminal impedance and pH (MII-pH) procedures to measure the number of reflux events following ingestion of a refluxogenic meal (sausage and egg breakfast sandwich and 8 oz. cup of coffee). The supervised dose was the only dose administered on this initial day of testing (Day 1). Subjects continued dosing for a further five day, then had one day with no study medication before returning for the next visit on Day 8. The same procedure was performed on Day 8 of the treatment period (i.e., the first day of the second dosing period). […]
(§1) • Primary: Reduction in esophageal reflux during a provocative procedure (following a refluxogenic meal) as measured by MII-pH; • Secondary: • (a) Change in reflux related symptoms (heartburn, regurgitation, acid taste) associated with ingestion of a refluxogenic meal; and • (b) Change in lower esophageal sphincter pressure.

Series [3] concerns healthy volunteers. As to the kind of experiment: Phase 1b crossover clinical trial: reflux events measured by multichannel intraluminal impedance and pH (MII-pH) after a refluxogenic meal. The class given is in vivo, human. As to the method:
The clinical trial reported here was a Phase 1b, randomized, double-blind placebo-controlled, crossover study. In the Study, 28 healthy volunteers were administered doses of DDP733 (0.5, 0.8 and 1.4 mg) and placebo and then given a refluxogenic meal. For a period of two hours after completion of the refluxogenic meal, reflux events were measured using intraesophageal impedance.
Phase 1b, randomized, double-blinded, placebo controlled, crossover study.
Three Study Periods: Total Number of Visits=4 • (1) Ten-day screening period (2 visits); • (2) Two week treatment period (Days 1-14) (2 visits: Day 1 which is on the same day as the second screening visit, and Day 8); and • (3) One day end of study period (1 visit).
Subjects were randomized into a treatment group on Day 1 (the same day as visit 2 of the screening period). For the completed study, each subject was exposed to one of the dose levels of DDP733 (i.e., 0.5 mg, 0.8 mg and 1.4 mg) and to placebo in randomized sequence to complete approximately one week of dosing with each of the two dosing regimens (DDP733 and placebo). The six treatment sequences were:
For example, there were 7 subjects in the study who received the 0.5 mg dose of DDP733. At the commencement of dosing period 1, three subjects in the 0.5 mg group received placebo and 4 subjects received 0.5 mg of drug. […]
After randomization, subjects received a first dose of study medication (Day 1). The medication was administered under supervision and the subjects were then evaluated by manometry to assess LES position and pressure and by a multichannel intraluminal impedance and pH (MII-pH) procedures to measure the number of reflux events following ingestion of a refluxogenic meal (sausage and egg breakfast sandwich and 8 oz. cup of coffee). […]
• Primary: Reduction in esophageal reflux during a provocative procedure (following a refluxogenic meal) as measured by MII-pH; • Secondary: • (a) Change in reflux related symptoms (heartburn, regurgitation, acid taste) associated with ingestion of a refluxogenic meal; and • (b) Change in lower esophageal sphincter pressure. […]

Series [4] relates to healthy volunteers. Put plainly: Phase 1b clinical trial: safety and tolerability (vital signs, adverse events, clinical laboratory testing, ECGs). Type of series: in vivo, human. An excerpt:
Characterize the safety and tolerability of DDP733 in volunteers.
Safety measurements included monitoring of vital signs and adverse events, clinical laboratory testing and performance of electrocardiograms (ECGs).

Series [5] has as its system gastric acid. To be noted: cited from earlier work.
Series [6] concerns healthy volunteers. As to the kind of experiment: Phase 1b clinical trial: reflux related symptoms (heartburn, regurgitation, acid taste) associated with refluxogenic meal. Type of series: in vivo, human. Conditions: 0.5 mg, 0.8 mg and 1.4 mg. How it is done:
In addition to assessment of the LESP and number of reflux events, subjects were also assessed on Days 1 and 8 to determine the frequency of the following symptoms: heartburn; regurgitation; and acid taste associated with the refluxogenic meal.
as §1

The structures appear in SMILES notation. Where two headings read alike, the source gives them in different places.

These results are taken from patent publication US20110275667A1, “COMPOSITIONS USEFUL FOR TREATING GASTROESOPHAGEAL REFLUX DISEASE” (EDUSA Pharmaceuticals, Inc., priority 2007, published 2011).

In the case of `O=C(N[C@H]1CN2CCC1CC2)c1c[nH]c2ccsc2c1=O` [DDP733, (R)—N-1-azabicyclo[2.2.2]oct-3-yl-4,7-dihydro-7-oxothieno[3,2-b]pyridine-6-carboxamide], in series [1] (0.2 mg dose), the “effect on increasing gastric emptying” value is given as “no significant effect” and the “effect on the fundus” value is “no significant effect”. For the same compound, in series [1] (1.0 mg dose), the “effect on increasing gastric emptying” value is “no significant effect” and the “effect on the fundus” value is given as “no significant effect”. Moreover, in series [1] (4.0 mg dose), the “effect on gastric emptying” value is reported as “delays gastric emptying” and the “effect on the fundus” value is “relaxes the fundus”. Further, the “LESP versus placebo (secondary endpoint)” value in series [2] is recorded as “no statistically significant differences”. Besides, the “statistical significance on primary clinical endpoint of reduction in the number of reflux events versus placebo” value in series [3] (0.5 mg dose, p=0.0313, Wilcoxon signed-rank test) was “achieved statistical significance”. The “reduction in the number of reflux events versus placebo” value in series [3] (0.8 mg dose) is listed as “did not show a statistically significant reduction”. The “reduction in the number of reflux events versus placebo” value in series [3] (1.4 mg dose) is given as “did not show a statistically significant reduction”. For the same compound, in series [4] (all doses), the “adverse events (AEs) leading to discontinuation” value is “no adverse events (AEs) leading to discontinuation” and the “significant adverse events (SAEs)” value is “no significant adverse events (SAEs) reports”. Also, in series [4] (all doses (0.5, 0.8, 1.4 mg)), the safety and tolerability result was “safe and well tolerated”. Further, the “time to resolution of drug related adverse events” value in series [4] (did not require medication) fell in the range of 1 to 5 days. In series [4] (human, in vivo), the “liver or cardiac abnormalities” value is listed as “No liver or cardiac abnormalities were observed” and the “severity of drug related adverse events (nausea, vomiting, pruritus, rash, rash macular, flush/hot flush, abdominal pain/discomfort)” value was “mild/moderate”. Further, the “gastric acid suppressing activity” value in series [5] is on record as “has gastric acid suppressing activity”. For the same compound, the “reflux related symptoms versus placebo (secondary endpoint)” value in series [6] is “no statistically significant differences”.
